Assays:
M4 muscarinic receptor = biological target: T1, M4 muscarinic receptor (Homo sapiens, UniProt P08173); assay: Functional mobilization of intracellular calcium (FLIPR) in CHO cells expressing M4 muscarinic receptor; format: cell-based; conditions: for M4 Activity: CHO cells expressing M4, calcium mobilization; for Emax: CHO, 100% efficacy is the maximum response obtained with the Carbachol control
T1 construct: expressed in transfected cells; host or cells: CHO (M4-CHO recombinant cell line)
T1 sequence (P08173 1-479): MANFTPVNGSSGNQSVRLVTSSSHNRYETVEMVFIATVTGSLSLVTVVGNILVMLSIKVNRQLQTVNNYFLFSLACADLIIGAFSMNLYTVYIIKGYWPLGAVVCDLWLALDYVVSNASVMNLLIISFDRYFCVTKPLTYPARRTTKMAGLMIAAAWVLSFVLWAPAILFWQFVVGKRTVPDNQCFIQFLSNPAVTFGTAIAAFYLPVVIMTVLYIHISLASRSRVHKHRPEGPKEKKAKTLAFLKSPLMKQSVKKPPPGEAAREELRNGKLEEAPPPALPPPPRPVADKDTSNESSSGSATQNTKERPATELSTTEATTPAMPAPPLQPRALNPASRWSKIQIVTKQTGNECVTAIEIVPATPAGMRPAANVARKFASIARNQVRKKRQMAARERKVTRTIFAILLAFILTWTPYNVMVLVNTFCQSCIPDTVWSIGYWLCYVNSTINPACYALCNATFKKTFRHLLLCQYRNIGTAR
In short: (§1)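 CHO cells loaded with Fluo-3 or Calcium 3 dye in pH 7.4 bath buffer with 1 mM probenecid, 0.5% DMSO. Agonist mode: compound added directly; inhibition mode: 15 min pre-incubation, then carbachol at EC80 (or co-application). Fluorescence recorded 60 s on FLIPR; efficacy relative to carbachol maximum.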

M1 muscarinic receptor = biological target: T2, M1 muscarinic receptor (Homo sapiens, UniProt P11229); assay: Functional mobilization of intracellular calcium (FLIPR) in CHO cells expressing M1 muscarinic receptor; format: cell-based; conditions: for M1 Activity: CHO cells expressing M1, calcium mobilization; for Emax: CHO, 100% efficacy is the maximum response obtained with the Carbachol control
T2 construct: expressed in transfected cells; host or cells: CHO (M1-CHO recombinant cell line)
T2 sequence (P11229 1-460): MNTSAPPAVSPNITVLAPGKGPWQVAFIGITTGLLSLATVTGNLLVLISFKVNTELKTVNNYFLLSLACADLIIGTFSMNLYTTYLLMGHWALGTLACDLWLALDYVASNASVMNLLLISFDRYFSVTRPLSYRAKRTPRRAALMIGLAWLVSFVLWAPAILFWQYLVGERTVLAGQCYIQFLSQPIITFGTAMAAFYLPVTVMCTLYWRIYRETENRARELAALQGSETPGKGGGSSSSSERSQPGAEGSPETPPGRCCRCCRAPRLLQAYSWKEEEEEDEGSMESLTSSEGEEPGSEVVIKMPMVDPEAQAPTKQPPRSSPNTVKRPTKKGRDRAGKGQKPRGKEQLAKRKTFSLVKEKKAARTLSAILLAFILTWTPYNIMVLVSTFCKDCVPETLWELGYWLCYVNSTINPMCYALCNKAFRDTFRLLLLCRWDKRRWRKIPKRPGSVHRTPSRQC
In short: as §1

Row | SMILES | M4 Activity (M4 muscarinic receptor) | Emax (M4 muscarinic receptor) [%] | M1 Activity (M1 muscarinic receptor) | Emax (M1 muscarinic receptor) [%]
1 | CC(C)(C)CCN1CCC2(C=C(C(=O)NC3CCCC3)c3ccccc32)CC1 [compound 77] | + (activity was measured to be greater than 10.0 μM) | < 25 | + (activity was measured to be greater than 10.0 μM) | 25 to 100
2 | N#CC1=CCC2(CCN(C3C[C@@H]4CC[C@@H]3C4)CC2)c2ccccc21 (stereo partly drawn) [compound 35] | ++ (activity was measured to be from 2.0 μM to 10.0 μM) | < 25 | + (activity was measured to be greater than 10.0 μM) | < 25
3 | O=C(NC1CC1)C1=CC2(CCN(CC3CC4C=CC3C4)CC2)c2ccccc21 (stereo not drawn) [compound 32] | +++ (activity was measured to be less than 2.0 μM) | 25 to 100 | + (activity was measured to be greater than 10.0 μM) | 25 to 100
4 | CNC(=O)C1=CC2(CCN(CC3CC4C=CC3C4)CC2)c2ccccc21 (stereo not drawn) [compound 69] | +++ (activity was measured to be less than 2.0 μM) | 25 to 100 | +++ (activity was measured to be less than 2.0 μM) | 25 to 100
5 | CCC(CC)NC(=O)C1=CC2(CCN(C3CCN(C(=O)OC)CC3)CC2)c2ccccc21 [compound 71] | +++ (activity was measured to be less than 2.0 μM) | 25 to 100 | + (activity was measured to be greater than 10.0 μM) | < 25
6 | CNC(=O)C1=CC2(CCN(CCC(C)C)CC2)c2ccccc21 [compound 15] | +++ (activity was measured to be less than 2.0 μM) | 25 to 100 | + (activity was measured to be greater than 10.0 μM) | 25 to 100
7 | CCC(CC)NC(=O)C1=CC2(CCN(CCC(C)C)CC2)c2ccccc21 [compound 40] | ++ (activity was measured to be from 2.0 μM to 10.0 μM) | 25 to 100 | + (activity was measured to be greater than 10.0 μM) | < 25
8 | CCC(CC)NC(=O)C1=CC2(CCN(C3CCCCCC3)CC2)c2ccccc21 [Compound No. 3] | ++ (activity was measured to be from 2.0 μM to 10.0 μM) | 25 to 100 | + (activity was measured to be greater than 10.0 μM) | < 25
9 | CCC(CC)NC(=O)C1=CC2(CCN(C3CCNCC3)CC2)c2ccccc21 [compound 7] | + (activity was measured to be greater than 10.0 μM) | < 25 | + (activity was measured to be greater than 10.0 μM) | < 25
10 | CCC(CC)NC(=O)C1=CC2(CCN(C3CCN(C(=O)C4CC4)CC3)CC2)c2ccccc21 [compound 45] | + (activity was measured to be greater than 10.0 μM) | 25 to 100 | + (activity was measured to be greater than 10.0 μM) | < 25
11 | CCC(CC)NC(=O)C1=CC2(CCN(C3CCN(C(=O)N4CCOCC4)CC3)CC2)c2ccccc21 [compound 18] | + (activity was measured to be greater than 10.0 μM) | < 25 | + (activity was measured to be greater than 10.0 μM) | < 25
12 | CC(C)(C)CCN1CCC2(C=C(C(=O)N3CCCCC3)c3ccccc32)CC1 [Compound No. 37] | +++ (activity was measured to be less than 2.0 μM) | 25 to 100 | +++ (activity was measured to be less than 2.0 μM) | 25 to 100

Reference: patent publication US7858790B2, “Modulators of muscarinic receptors” (Vertex Pharmaceuticals Incorporated, priority 2006, dated 2010)
